PubChem BioAssay AID328 (DTP/NCI, 2004)
“And” between values parts separate entries of the source, which are not always exact repeats. Equal entries are not always repeated. Toxic doses and inconclusive results are not listed.

Tested on: BDF1 mice, P388 leukemia ip, median survival T/C
Experiment: NCI In Vivo Anticancer Drug Screen. Data for tumor model P388 Leukemia (intraperitoneal) in B6D2F1 (BDF1) mice
Settings: endpoint: median survival time, higher = longer survival
In short: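 Read-out is survival of treated animals expressed relative to the vehicle group, as a T/C ratio.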

[1] = dose: 25.0 mg/kg/injection, schedule: Q04DX003 (ip), vehicle: saline
[2] = dose: 50.0 mg/kg/injection, schedule: Q04DX003 (ip), vehicle: saline
[3] = dose: 100.0 mg/kg/injection, schedule: Q04DX003 (ip), vehicle: saline
[4] = dose: 100.0 mg/kg/injection, schedule: Q04DX003 (ip), vehicle: saline sonified
[5] = dose: 200.0 mg/kg/injection, schedule: Q04DX003 (ip), vehicle: saline sonified
[6] = dose: 400.0 mg/kg/injection, schedule: Q04DX003 (ip), vehicle: saline sonified
[7] = dose: 100.0 mg/kg/injection, schedule: Q01DX009 (ip), vehicle: saline with Tween-80
[8] = dose: 200.0 mg/kg/injection, schedule: Q01DX009 (ip), vehicle: saline with Tween-80
[9] = dose: 400.0 mg/kg/injection, schedule: Q01DX009 (ip), vehicle: saline with Tween-80

**Q.** `Oc1ccccc1C=NC1CCCCC1.Oc1ccccc1C=NC1CCCCC1.[Cu+2]` was tested. Which T/C (dose: 100.0 mg/kg/injection, schedule: Q01DX001 (ip), vehicle: saline sonified) did it give?
**A.** 90 % of control

**Q.** And the T/C (dose: 200.0 mg/kg/injection, schedule: Q01DX001 (ip), vehicle: saline sonified)?
**A.** 90 % of control

**Q.** What about the T/C (dose: 400.0 mg/kg/injection, schedule: Q01DX001 (ip), vehicle: saline sonified) of the same molecule?
**A.** 109 % of control

**Q.** What does the source list for `CN(C)[C@@H]1C(=O)C(C(=O)NCNC(CO)(CO)CO)=C(O)[C@@]2(O)C(=O)C3=C(O)c4c(O)cccc4[C@@](C)(O)[C@H]3C[C@@H]12`?
**A.** T/C [1]: 100 % of control; T/C [2]: 95 % of control; T/C [3]: 90 % of control; T/C (dose: 200.0 mg/kg/injection, schedule: Q04DX003 (ip), vehicle: saline): 104 % of control

**Q.** `CCOC(=O)C(C#N)C(C)CC` (stereo not given) was tested. Which T/C (dose: 25.0 mg/kg/injection, schedule: Q01DX009 (ip), vehicle: Klucel (hydroxypropylcellulose) (HPC)) did it give?
**A.** 90 % of control

**Q.** And the T/C (dose: 50.0 mg/kg/injection, schedule: Q01DX009 (ip), vehicle: Klucel (hydroxypropylcellulose) (HPC))?
**A.** 104 % of control

**Q.** What about the T/C (dose: 100.0 mg/kg/injection, schedule: Q01DX009 (ip), vehicle: Klucel (hydroxypropylcellulose) (HPC)) of the same molecule?
**A.** 100 % of control

**Q.** What about the T/C (dose: 100.0 mg/kg/injection, schedule: Q04DX003 (ip), vehicle: Klucel (hydroxypropylcellulose) (HPC)) of the same molecule?
**A.** 87 % of control

**Q.** And the T/C (dose: 200.0 mg/kg/injection, schedule: Q01DX009 (ip), vehicle: Klucel (hydroxypropylcellulose) (HPC))?
**A.** 95 % of control

**Q.** What about the T/C (dose: 200.0 mg/kg/injection, schedule: Q04DX003 (ip), vehicle: Klucel (hydroxypropylcellulose) (HPC)) of the same molecule?
**A.** 104 % of control

**Q.** What about the T/C (dose: 400.0 mg/kg/injection, schedule: Q01DX009 (ip), vehicle: Klucel (hydroxypropylcellulose) (HPC)) of the same molecule?
**A.** 90 % of control

**Q.** What about the T/C (dose: 400.0 mg/kg/injection, schedule: Q04DX003 (ip), vehicle: Klucel (hydroxypropylcellulose) (HPC)) of the same molecule?
**A.** 95 % of control

**Q.** With `O=C(Nc1ccccc1O)c1ccccc1` as the molecule, how does the T/C [4] read?
**A.** 90 % of control

**Q.** And the T/C [5]?
**A.** 100 % of control

**Q.** And the T/C [6]?
**A.** 90 % of control

**Q.** `C[C@@H]1CCC[C@@H](NC(=O)N(CCCl)N=O)C1` was tested. Which T/C (dose: 9.37 mg/kg/injection, schedule: Q01DX009 (ip), vehicle: Klucel (hydroxypropylcellulose) (HPC)) did it give?
**A.** 151 % of control

**Q.** What about the T/C (dose: 18.75 mg/kg/injection, schedule: Q01DX009 (ip), vehicle: Klucel (hydroxypropylcellulose) (HPC)) of the same molecule?
**A.** 157 % of control

**Q.** And the T/C (dose: 37.5 mg/kg/injection, schedule: Q01DX009 (ip), vehicle: Klucel (hydroxypropylcellulose) (HPC))?
**A.** 252 % of control

**Q.** What about the T/C (dose: 75.0 mg/kg/injection, schedule: Q01DX009 (ip), vehicle: Klucel (hydroxypropylcellulose) (HPC)) of the same molecule?
**A.** 120 % of control

**Q.** What does the source list for `CCCCCCCCCC(O)CCCCC` (stereo not given)?
**A.** T/C (dose: 20.0 mg/kg/injection, schedule: Q01DX009 (ip), vehicle: saline with Tween-80): 100 % of control; T/C (dose: 25.0 mg/kg/injection, schedule: Q04DX003 (ip), vehicle: saline with Tween-80): 95 % of control; T/C (dose: 45.0 mg/kg/injection, schedule: Q01DX009 (ip), vehicle: saline with Tween-80): 100 % of control; T/C (dose: 50.0 mg/kg/injection, schedule: Q04DX003 (ip), vehicle: saline with Tween-80): 108 % of control; T/C (dose: 90.0 mg/kg/injection, schedule: Q01DX009 (ip), vehicle: saline with Tween-80): 104 % of control; T/C [7]: 113 % of control; T/C (dose: 100.0 mg/kg/injection, schedule: Q01DX009 (ip), vehicle: saline): 170 % of control; T/C (dose: 100.0 mg/kg/injection, schedule: Q04DX003 (ip), vehicle: saline with Tween-80): 100 % of control; T/C (dose: 135.0 mg/kg/injection, schedule: Q01DX009 (ip), vehicle: saline with Tween-80): 95 % of control; T/C [8]: 108 % of control; T/C (dose: 200.0 mg/kg/injection, schedule: Q04DX003 (ip), vehicle: saline with Tween-80): 95 % of control; T/C [9]: 113 % of control; T/C (dose: 400.0 mg/kg/injection, schedule: Q04DX003 (ip), vehicle: saline with Tween-80): 100 % of control

**Q.** For `c1ccc(OCCC[P+](c2ccccc2)(c2ccccc2)c2ccccc2)cc1`, which T/C (dose: 0.78 mg/kg/injection, schedule: Q01DX010 (ip), vehicle: saline) is on record?
**A.** 90 % of control

**Q.** And the T/C (dose: 1.56 mg/kg/injection, schedule: Q01DX010 (ip), vehicle: saline)?
**A.** 100 % of control

**Q.** What about the T/C (dose: 3.13 mg/kg/injection, schedule: Q01DX010 (ip), vehicle: saline) of the same molecule?
**A.** 109 % of control

**Q.** What about the T/C (dose: 6.25 mg/kg/injection, schedule: Q01DX010 (ip), vehicle: saline) of the same molecule?
**A.** 118 % of control

**Q.** What about the T/C (dose: 12.5 mg/kg/injection, schedule: Q01DX010 (ip), vehicle: carboxymethylcellulose (CMC)) of the same molecule?
**A.** 100 % of control

**Q.** What does the source list for `Nc1nc(SCc2ccc([N+](=O)[O-])cc2)c2[nH]cnc2n1`?
**A.** T/C [4]: 110 % of control; T/C [5]: 110 % of control; T/C [6]: 100 % of control

**Q.** For `Brc1ccc2c(c1)-c1ccccc1C1=NCCN12`, which T/C (dose: 2.5 mg/kg/injection, schedule: Q01DX009 (ip), vehicle: Klucel (hydroxypropylcellulose) (HPC)) is on record?
**A.** 95 % of control

**Q.** What about the T/C (dose: 5.0 mg/kg/injection, schedule: Q01DX009 (ip), vehicle: Klucel (hydroxypropylcellulose) (HPC)) of the same molecule?
**A.** 104 % of control

**Q.** And the T/C (dose: 10.0 mg/kg/injection, schedule: Q01DX009 (ip), vehicle: Klucel (hydroxypropylcellulose) (HPC))?
**A.** 100 % of control

**Q.** What about the T/C (dose: 20.0 mg/kg/injection, schedule: Q01DX009 (ip), vehicle: Klucel (hydroxypropylcellulose) (HPC)) of the same molecule?
**A.** 95 % of control

**Q.** Which results are given for `C=C(Cl)C(=O)OCC`?
**A.** T/C (dose: 5.0 mg/kg/injection, schedule: Q04DX003 (ip), vehicle: saline): 100 % of control; T/C (dose: 10.0 mg/kg/injection, schedule: Q04DX003 (ip), vehicle: saline): 109 % of control; T/C (dose: 20.0 mg/kg/injection, schedule: Q04DX003 (ip), vehicle: saline): 100 % of control

**Q.** For `O=c1oc2ccccc2c2c1Cc1c(oc3ccc4ccccc4c3c1=O)O2`, which T/C (dose: 50.0 mg/kg/injection, schedule: Q01DX009 (ip), vehicle: saline with Tween-80) is on record?
**A.** 91 % of control

**Q.** What about the T/C [7] of the same molecule?
**A.** 95 % of control

**Q.** What about the T/C [8] of the same molecule?
**A.** 92 % of control

**Q.** Which results are given for `Cn1c(-c2ccccc2)c2c(c1-c1ccccc1)CCCC2`?
**A.** T/C (dose: 100.0 mg/kg/injection, schedule: Q04DX002 (ip), vehicle: saline with Tween-80): 88 % of control; T/C (dose: 200.0 mg/kg/injection, schedule: Q04DX002 (ip), vehicle: saline with Tween-80): 87 % of control

**Q.** Which results are given for `N#CC(=Nc1cc(Cl)cc(Cl)c1)C1=C(O)c2ccccc2C1=O`?
**A.** T/C (dose: 50.0 mg/kg/injection, schedule: Q01DX005 (ip), vehicle: saline with Tween-80): 101 % of control; T/C (dose: 100.0 mg/kg/injection, schedule: Q01DX005 (ip), vehicle: saline with Tween-80): 111 % of control; T/C (dose: 200.0 mg/kg/injection, schedule: Q01DX005 (ip), vehicle: saline with Tween-80): 101 % of control

**Q.** Which results are given for `S=c1nc[nH]c2nc[nH]c12`?
**A.** T/C (dose: 12.5 mg/kg/injection, schedule: Q01DX009 (ip), vehicle: saline with Tween-80): 104 % of control; T/C (dose: 15.0 mg/kg/injection, schedule: Q01DX010 (ip), vehicle: saline): 150 % of control; T/C (dose: 20.0 mg/kg/injection, schedule: Q01DX010 (ip), vehicle: saline): 100 % of control; T/C (dose: 20.0 mg/kg/injection, schedule: Q01DX010 (ip), vehicle: water): 110 % of control; T/C (dose: 25.0 mg/kg/injection, schedule: Q01DX009 (ip), vehicle: saline with Tween-80): 113 % of control; T/C (dose: 26.0 mg/kg/injection, schedule: Q01DX009 (ip), vehicle: alkali diluted with saline): 104 % of control and 107 % of control; T/C (dose: 30.0 mg/kg/injection, schedule: Q01DX010 (ip), vehicle: saline): 90 % of control and 104 % of control; T/C (dose: 40.0 mg/kg/injection, schedule: Q01DX010 (ip), vehicle: saline): 100 % of control; T/C (dose: 40.0 mg/kg/injection, schedule: Q01DX010 (ip), vehicle: water): 110 % of control; T/C (dose: 60.0 mg/kg/injection, schedule: Q01DX010 (ip), vehicle: water): 110 % of control; T/C (dose: 72.0 mg/kg/injection, schedule: Q01DX009 (ip), vehicle: alkali diluted with saline): 117 % of control; T/C (dose: 80.0 mg/kg/injection, schedule: Q01DX010 (ip), vehicle: saline): 104 % of control; T/C (dose: 90.0 mg/kg/injection, schedule: Q01DX009 (ip), vehicle: alkali diluted with saline): 107 % of control and 111 % of control; T/C (dose: 120.0 mg/kg/injection, schedule: Q01DX009 (ip), vehicle: alkali diluted with saline): 103 % of control; T/C (dose: 120.0 mg/kg/injection, schedule: Q01DX010 (ip), vehicle: saline): 109 % of control; T/C (dose: 160.0 mg/kg/injection, schedule: Q01DX010 (ip), vehicle: saline): 90 % of control

**Q.** `CN(C)C(=O)C1CCC1` was tested. Which T/C [7] did it give?
**A.** 104 % of control

**Q.** And the T/C [8]?
**A.** 90 % of control

**Q.** What about the T/C [9] of the same molecule?
**A.** 113 % of control

**Q.** For `[N-]=[N+]=Nc1ccc(Cl)cc1C(=O)c1ccccc1`, which T/C [1] is on record?
**A.** 104 % of control

**Q.** What about the T/C [2] of the same molecule?
**A.** 90 % of control

**Q.** And the T/C [3]?
**A.** 109 % of control
